From patent US20260355182A1, “ISOQUINOLINE DERIVATIVE, SYNTHESIS METHOD THEREFOR, AND USE THEREOF” (Harbin Gloria Pharmaceuticals Co., Ltd., priority 2023, published 2026)

How the values were obtained:
[1] = system: SK-N-SH cells; assay: Dose-effect relationship on cellular ATP levels in cultured SK-N-SH cells; type: cell-based, human
Description: SK-N-SH cells were seeded in a 6-well plate at a density of 6×10^4 per well. Cells were cultured for 12 hours under 5% O2, and the drug was added. Cells were harvested after 48 hours. Cellular ATP levels were measured using a Promega ATP assay kit. The experiment was repeated 5 times to 7 times.

[2] = system: Wild-type mice (C57BL/6); assay: Blood glucose in wild-type mice; type: in vivo; conditions: 0.1 mg/kg i.p., C57BL/6, fasted 6 hours after administration
Description: Wild-type mice (C57BL/6) aged 3 months to 4 months under normal feeding conditions were intraperitoneally injected with different drugs at 0.1 mg/kg. Mice injected with normal saline served as the control group. Mice were fasted for 6 hours after administration. Blood was collected from the tail of each mouse to measure blood glucose levels. Each group consisted of 9 mice.

[3] = system: MPTP-induced Parkinson's disease model mice; assay: MPTP-induced mouse model of Parkinson's disease, rotarod and tyrosine hydroxylase Western blot; type: in vivo; conditions: terazosin 0.1 mg/Kg
Description: Male mice aged 3 months were used and fed normally. The acute MPTP modeling method (see Sonsalla P K, Heikkila R E. The influence of dose and dosing interval on MPTP-induced dopaminergic neurotoxicity in mice. Eur J Pharmacol 1986; 129(3): 339-45.) was employed. MPTP was injected intraperitoneally four times in total at a dose of 20 mg/kg body weight per injection, with a 2-hour interval between each injection. MPTP was dissolved in normal saline, and the control group received an equal dose of normal saline. T2 was dissolved in DMSO and diluted with normal saline to the desired concentration. Accordingly, equal doses of DMSO and normal saline were administered during the treatment. On the day of MPTP model establishment, mice were administered either T2 (treatment group) or DMSO (control group). Subsequently, mice in all groups were administered the corresponding drugs daily. Mouse behavior was tested using a rotarod (E103, UGO BASILE). First, mice were pre-trained for two consecutive days at a constant speed of 15 revolutions per minute (15 rpm) until they could stay on the rod for more than 60 seconds. On day 7 after MPTP injection, mice were tested on the rotarod in an accelerating mode (2 rpm to 45 rpm). The latency to fall from the rotarod was recorded, and the behavior was monitored by a camera. After the experiment, the mice were sacrificed, and the striatal brain tissue was harvested for Western blot assay. Tyrosine hydroxylase (TH) is a protein specifically expressed in dopaminergic neurons. Therefore, whether dopaminergic neurons were damaged can be determined by Western blot assay using an anti-TH antibody.

[4] = system: primary mouse neurons; assay: Cellular status and glucose metabolism-related gene expression in primary mouse neurons; type: cell-based; conditions: normoxic, 72 h; TZ 10 μM, T6 10 PM (so in the source)
From the text: In FIG. 10, A) representative bright-field images show the cellular status of primary neurons after treatment. […] The analyzed genes included G6PD, HK2, LDHA, PDK1, PGK1, and SLC2A1/GLUT1. […] TZ treatment produced a similar but generally more moderate metabolic gene-response profile, including increased LDHA, PDK1, and SLC2A1/GLUT1 expression. […] Error bars indicate variation among measurements. […] The results support the use of T6 or related compounds as agents capable of regulating neuronal metabolic status and glucose metabolism-associated pathways.

[5] = system: MPTP-induced Parkinsonian mouse model; assay: MPTP-induced Parkinsonian mouse model, rotarod and TH Western blot (T6); type: in vivo; conditions: TZ, MPTP 20 mg/kg
Description: Mice were administered MPTP at 20 mg/kg to induce Parkinsonian motor impairment and dopaminergic neuronal injury. […] In FIG. 13, A) motor coordination and endurance were assessed using the rotarod test and are expressed as the time remaining on the rotating rod. […] Actin was used as a loading control. […] Data are presented as mean±error bars, with individual points representing biological replicates. Significance of one-way ANOVA analysis is indicated as P<0.05 (*), P<0.01 (**), and P<0.001 (***).

[6] = system: db/db mice; assay: Acute glucose-response assay in non-fasted db/db mice; type: in vivo; conditions: s.c., 2 h; TZ 0.5, liraglutide 0.6, T6 0.5 mg/Kg
Description: The db/db mice were used to evaluate the glucose-lowering activity of compound T6 in comparison with reference metabolic agents (TZ 0.5 mg/Kg, liraglutide 0.6 mg/Kg, T6 0.5 mg/Kg). In FIG. 15, A) for the acute glucose-response assay, drugs were administered to non-fasted db/db mice. Immediately after drug administration (s. c.), mice were deprived of food and water, and blood glucose levels were measured from tail blood samples 2 h later. The relative percentage change in blood glucose was calculated by comparing glucose levels before and after treatment in the same animal. […] HbA1c levels were then measured using a glycated hemoglobin A1c enzyme-linked immunosorbent assay, also referred to as a mouse HbA1c ELISA assay. […] Data are presented as mean±error bars, with individual circles representing individual animals. Statistical significance is indicated as P<0.001 (**) and P<0.0001 (***).

[7] = system: phosphoglycerate kinase 1 (Pgk1); conditions: cited from earlier work
[8] = system: mouse and rat models of Parkinson's disease, Alzheimer's disease, multiple system atrophy; conditions: cited from earlier work
[9] = system: diabetic patients; conditions: cited from earlier work
[10] = system: rats; conditions: combined administration of terazosin and propranolol; cited from earlier work
[11] = system: patients; conditions: cited from earlier work
[12] = biological target: T1, Pgk1 (Homo sapiens, UniProt P00558); assay: In vitro biochemical Pgk1 enzymatic activity assay (NADH production); parameters: GAPDH-coupled NADH assay; conditions: 1.6 mM GAP, 1 mM β-NAD, 1 mM ADP, 20 ng/μL GAPDH, pH 8.6, 10 minutes
T1 sequence (P00558 1-417): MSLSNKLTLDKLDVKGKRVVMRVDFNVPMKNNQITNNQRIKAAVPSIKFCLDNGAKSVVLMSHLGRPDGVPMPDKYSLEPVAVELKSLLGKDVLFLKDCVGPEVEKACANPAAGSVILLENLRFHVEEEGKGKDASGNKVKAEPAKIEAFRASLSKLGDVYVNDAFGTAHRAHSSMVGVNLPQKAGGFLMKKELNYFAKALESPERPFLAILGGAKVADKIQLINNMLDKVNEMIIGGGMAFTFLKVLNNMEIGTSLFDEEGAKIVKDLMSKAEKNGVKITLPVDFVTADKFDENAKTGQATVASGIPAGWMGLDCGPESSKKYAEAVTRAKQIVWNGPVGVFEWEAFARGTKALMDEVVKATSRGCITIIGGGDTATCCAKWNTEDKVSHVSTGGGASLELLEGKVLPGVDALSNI
Description: Human Pgk1 cDNA was cloned into the pEASYTM-E2 vector (TransGen Biotech) containing a His tag. Protein expression was induced in BL21(DE3) chemocompetent cells (TransGen Biotech) with 0.5 mM IPTG. After lysing cells in extraction buffer (20 mM sodium phosphate, 500 mM NaCl, 5 mM imidazole, 5% glycerol, protease inhibitor cocktail, pH 7.9), the supernatant was purified with nickel beads (AdarBiotech). The His-tagged Pgk1 was eluted with the elution buffer (20 mM sodium phosphate, 500 mM NaCl, 80 mM imidazole, protease inhibitor cocktail, pH 7.9). The activity of Pgk1 can be measured by monitoring the rate of NADH production, as NADH accumulated as the reaction proceeded. Purified Pgk1-His protein ([…]) was added to the reaction buffer (20 mM Tris, 100 mM NaCl, 2 mM DTT, 0.1 mM MgSO4, 10 mM NaHPO4, pH 8.6), and the substrates (1.6 mM GAP, 1 mM β-NAD, 1 mM ADP, 20 ng/μL GAPDH) was added. […] After reaction for 10 minutes at room temperature, the absorbance wavelength at 339 nm was measured using a microplate reader (Molecular Devices, SpectraMax i3x), and this wavelength corresponds to NADH levels.

Compound: COc1cc2nc(N3CCN(C(=O)C4CCCO4)CC3)nc(N)c2cc1OC (stereo not drawn) [Terazosin, terazosin]
- Inhibition of cell growth ([1]; 50 μM, SK-N-SH cells): a tendency to inhibit cell growth
- Optimal dose for cellular ATP levels ([1]; doses 5, 10 and 50 μM, 48 hours, 5% O2): 10 µM
- Hypoglycemic effect [2]: did not exhibit a hypoglycemic effect
- Motor ability (rotarod) ([3]; day 7 after MPTP): improved the motor ability of mice
- Tyrosine hydroxylase level / dopaminergic neurons ([3]; striatum, Western blot): exerted a protective effect on dopaminergic neurons
- Neuronal cellular morphology/status [4]: detectable changes in neuronal cellular morphology/status
- Rotarod performance (TZ) [5]: weaker improvement
- Acute change in blood glucose [6]: weaker acute effect
- Effect on Pgk1, high concentration ([7]; high concentrations): can inhibit Pgk1
- Effect on Pgk1, low concentration ([7]; low concentrations): can activate Pgk1
- Binding to / activation of Pgk1 ([7]; previous studies): can activate Pgk1
- Dissociation of ATP from Pgk1 protein ([7]; published studies): promoted the dissociation of ATP from the Pgk1 protein
- Therapeutic and prophylactic effects [8]: exerts therapeutic and prophylactic effects
- Blood glucose and lipid levels [9]: efficacy is extremely limited or ineffective
- Blood glucose in rats [10]: did not affect blood glucose in rats
- Side effects [11]: intraoperative floppy iris syndrome (IFIS), hypotension, fatigue, dizziness, syncope, and blurred vision
- Concentration for best activation of Pgk1 ([12]; role: activator): 1 µM
- Effect on Pgk1 enzymatic activity at high concentration ([12]; role: inhibitor, 100 μM): can inhibit Pgk1 enzymatic activity
